# Measured values reported in US20240335442A1 (Eurofarma Laboratórios S.A., priority 2021, published 2024).
# Legend:
# Type in all cases: cell-based
# [1] = target: T1, human sodium channel Nav 1.8 (Homo sapiens (Human), UniProt Q9Y5Y9); assay: Automated whole-cell voltage-clamp (ScreenPatch 384P), Nav 1.8 sodium current, Protocol 1; details: Protocol 1 (holding voltage -90 mV, 0.1 Hz); CHO cells expressing human Nav 1.8; room temperature; read-out: Nav1.8 IC50
# Protocol: (§1) Biological assays were performed on Chinese hamster ovary (CHO) cells expressing the human sodium channels Nav 1.8 and Nav 1.7 stably.
# (§2) The experimental voltage-clamp protocol using the whole cell configuration was established on the automated ScreenPatch® 384P platform (SP384PE, Nanion Technologies, Livingston, NJ) and recording of the results was performed with a Nanion 384-well Patch Clamp chip (NPC) (Nanion Technologies, Livingston, NJ).
# (§3) Compounds of Formula (I), were diluted in eight concentrations in the extracellular solution composed of physiological saline, buffered with HEPES (mM): NaCl, 137; KCl, 4; CaCl2, 3.8; MgCl2, 1; HEPES, 10; Glucose, 10; pH 7.4. The […], 50; CsF, 90; MgCl2, 5; EGTA, 5; HEPES, 10; pH 7.2. The duration of exposure of each compound with the cells expressing Nav 1.7 or Nav 1.8 was at least five minutes and the assays were performed at room temperature.
# (§4) The measurements of the sodium currents of Nav 1.8 and Nav 1.7 were obtained using the voltage protocols described below: • Protocol 1: A holding voltage of-90 mV was established followed by a voltage phase of 200 ms to-120 mV, followed by a voltage step of 10 mV for 1 second for Nav 1.8 or 0 mV for Nav 1.7, followed by a step of-100 mV for 20 ms, followed by a step of 20 ms for 10 mV for Nav 1.8 or 0 mV for Nav 1.7 (TP1A) before returning to the holding voltage of-90 mV. • Protocol 2: A holding voltage of-100 mV was established followed by an inactivation voltage step at −40 mV for 8 seconds, followed by a −100 mV step for 20 ms, followed by a 20 ms step for 10 mV for Nav 1.8 or 0 mV for Nav 1.7 (TP1A) before returning to the holding voltage of-100 mV.
# (§5) Protocols were repeated at a frequency of 0.1 Hz (Protocol 1) or 0.05 Hz (Protocol 2) and current amplitude was quantified over the TP1A phase log. The variation in the peak amplitude of the current was evaluated according to the Formula described below, after exposure of the cells expressing the channels, at each concentration of the different compounds:
# (§6) where ITP1A,basal, and ITP1A,molecule represent the entry peaks of sodium currents into TP1A prior to exposure to the compound and in the presence of the compound, respectively.
# (§7) The decrease in peak current amplitude, after exposure of the cells to the compounds, was used to calculate the percent relative blocking of the channels relative to the positive control according to the Formula below: […]
# (§8) where % V and % CP represent the averages of the values of current inhibition with a vehicle (DMSO) and positive controls, respectively. The sodium currents of the positive control were considered as 100%.
# (§9) where [Test] represents the concentration of the evaluated molecule, IC50 is the concentration of the compound that generates half of the maximum inhibition, N is the Hill's coefficient and % Block′ is the percentage of the sodium channel current (Nav 1.8 and Nav 1.7) inhibited at each concentration of the evaluated molecule. Data were obtained by non linear least squares regression with XL fit for Excel (Microsoft, Redmond, WA).
# (§10) Compounds were tested in at least one assay to obtain the IC50 value.
# [2] = target: T2, human sodium channel Nav 1.7 (Homo sapiens (Human), UniProt Q15858); assay: Automated whole-cell voltage-clamp (ScreenPatch 384P), Nav 1.7 sodium current, Protocol 1; details: Protocol 1 (holding voltage -90 mV, 0.1 Hz); CHO cells expressing human Nav 1.7; room temperature; read-out: Nav1.7 IC50
# T2 sequence (Q15858 whole entry): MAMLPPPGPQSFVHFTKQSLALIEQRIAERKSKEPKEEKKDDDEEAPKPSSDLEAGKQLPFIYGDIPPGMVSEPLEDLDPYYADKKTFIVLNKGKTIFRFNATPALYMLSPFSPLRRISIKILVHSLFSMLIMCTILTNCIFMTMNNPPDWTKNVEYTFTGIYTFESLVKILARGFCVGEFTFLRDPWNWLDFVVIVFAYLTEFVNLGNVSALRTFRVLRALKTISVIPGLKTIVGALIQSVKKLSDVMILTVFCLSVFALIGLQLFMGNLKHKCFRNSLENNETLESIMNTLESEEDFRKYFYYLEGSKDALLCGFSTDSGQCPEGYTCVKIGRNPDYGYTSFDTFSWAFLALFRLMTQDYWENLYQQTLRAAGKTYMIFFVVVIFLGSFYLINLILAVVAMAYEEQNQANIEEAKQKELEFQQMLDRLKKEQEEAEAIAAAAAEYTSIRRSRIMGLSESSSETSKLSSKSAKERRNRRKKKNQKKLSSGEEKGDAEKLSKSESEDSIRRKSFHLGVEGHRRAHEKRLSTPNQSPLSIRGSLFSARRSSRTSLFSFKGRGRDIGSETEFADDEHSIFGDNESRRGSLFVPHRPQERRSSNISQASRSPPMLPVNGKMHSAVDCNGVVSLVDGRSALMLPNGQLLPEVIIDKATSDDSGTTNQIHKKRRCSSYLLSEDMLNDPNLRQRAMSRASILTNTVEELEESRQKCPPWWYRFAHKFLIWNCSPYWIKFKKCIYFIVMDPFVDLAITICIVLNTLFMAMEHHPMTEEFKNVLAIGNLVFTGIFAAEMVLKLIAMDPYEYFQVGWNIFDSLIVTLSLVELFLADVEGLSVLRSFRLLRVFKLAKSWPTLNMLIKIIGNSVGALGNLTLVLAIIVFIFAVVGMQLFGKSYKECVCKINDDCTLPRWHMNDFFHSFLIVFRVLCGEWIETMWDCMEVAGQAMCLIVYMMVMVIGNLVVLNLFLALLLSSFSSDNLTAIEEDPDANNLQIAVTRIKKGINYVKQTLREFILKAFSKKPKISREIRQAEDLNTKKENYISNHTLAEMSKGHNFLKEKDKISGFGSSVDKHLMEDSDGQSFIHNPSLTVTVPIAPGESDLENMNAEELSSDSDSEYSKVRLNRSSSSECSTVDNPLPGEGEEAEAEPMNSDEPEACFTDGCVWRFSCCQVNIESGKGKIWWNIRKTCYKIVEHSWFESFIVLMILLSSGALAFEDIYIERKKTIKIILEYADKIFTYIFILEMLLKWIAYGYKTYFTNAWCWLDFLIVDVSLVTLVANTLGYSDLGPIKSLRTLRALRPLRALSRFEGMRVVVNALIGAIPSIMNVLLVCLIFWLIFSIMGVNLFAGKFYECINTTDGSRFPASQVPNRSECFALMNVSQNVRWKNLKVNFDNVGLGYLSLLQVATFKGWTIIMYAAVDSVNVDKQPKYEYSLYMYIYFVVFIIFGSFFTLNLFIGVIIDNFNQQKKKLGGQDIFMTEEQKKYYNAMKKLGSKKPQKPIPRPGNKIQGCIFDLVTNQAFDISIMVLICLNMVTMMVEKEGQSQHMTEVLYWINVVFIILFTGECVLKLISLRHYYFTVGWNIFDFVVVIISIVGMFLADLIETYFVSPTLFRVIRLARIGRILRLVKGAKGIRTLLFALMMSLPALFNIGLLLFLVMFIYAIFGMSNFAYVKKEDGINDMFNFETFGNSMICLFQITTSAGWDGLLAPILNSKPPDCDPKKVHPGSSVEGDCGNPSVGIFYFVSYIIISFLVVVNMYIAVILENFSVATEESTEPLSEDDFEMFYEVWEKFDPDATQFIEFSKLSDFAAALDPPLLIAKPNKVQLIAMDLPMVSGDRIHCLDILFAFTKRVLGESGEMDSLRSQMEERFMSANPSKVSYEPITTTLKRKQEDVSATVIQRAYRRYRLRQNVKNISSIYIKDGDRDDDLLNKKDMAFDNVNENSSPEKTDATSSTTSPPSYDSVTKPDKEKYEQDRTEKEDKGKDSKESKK
# Protocol: as §1, §2, §3, §4, §5, §6, §7, §8, §9, §10
# [3] = target: T1, human sodium channel Nav 1.8; assay: Automated whole-cell voltage-clamp (ScreenPatch 384P), Nav 1.8 sodium current, Protocol 2; details: read-out: Nav1.8 IC50
# Procedure, shortened: (§11)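 Peak TP1A sodium current block, scaled between DMSO vehicle and positive control, was fitted with a Hill equation to give IC50 at eight compound concentrations (≥5 min, room temperature) in stable CHO lines. Protocol 2 (0.05 Hz) used an 8 s −40 mV inactivating prepulse from −100 mV; Protocol 1 (0.1 Hz) held at −90 mV; test steps 10 mV for Nav1.8, 0 mV for Nav1.7.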
# [4] = target: T2, human sodium channel Nav 1.7; assay: Automated whole-cell voltage-clamp (ScreenPatch 384P), Nav 1.7 sodium current, Protocol 2; details: read-out: Nav1.7 IC50
# Procedure, shortened: as §11
# T1 sequence (Q9Y5Y9 whole entry): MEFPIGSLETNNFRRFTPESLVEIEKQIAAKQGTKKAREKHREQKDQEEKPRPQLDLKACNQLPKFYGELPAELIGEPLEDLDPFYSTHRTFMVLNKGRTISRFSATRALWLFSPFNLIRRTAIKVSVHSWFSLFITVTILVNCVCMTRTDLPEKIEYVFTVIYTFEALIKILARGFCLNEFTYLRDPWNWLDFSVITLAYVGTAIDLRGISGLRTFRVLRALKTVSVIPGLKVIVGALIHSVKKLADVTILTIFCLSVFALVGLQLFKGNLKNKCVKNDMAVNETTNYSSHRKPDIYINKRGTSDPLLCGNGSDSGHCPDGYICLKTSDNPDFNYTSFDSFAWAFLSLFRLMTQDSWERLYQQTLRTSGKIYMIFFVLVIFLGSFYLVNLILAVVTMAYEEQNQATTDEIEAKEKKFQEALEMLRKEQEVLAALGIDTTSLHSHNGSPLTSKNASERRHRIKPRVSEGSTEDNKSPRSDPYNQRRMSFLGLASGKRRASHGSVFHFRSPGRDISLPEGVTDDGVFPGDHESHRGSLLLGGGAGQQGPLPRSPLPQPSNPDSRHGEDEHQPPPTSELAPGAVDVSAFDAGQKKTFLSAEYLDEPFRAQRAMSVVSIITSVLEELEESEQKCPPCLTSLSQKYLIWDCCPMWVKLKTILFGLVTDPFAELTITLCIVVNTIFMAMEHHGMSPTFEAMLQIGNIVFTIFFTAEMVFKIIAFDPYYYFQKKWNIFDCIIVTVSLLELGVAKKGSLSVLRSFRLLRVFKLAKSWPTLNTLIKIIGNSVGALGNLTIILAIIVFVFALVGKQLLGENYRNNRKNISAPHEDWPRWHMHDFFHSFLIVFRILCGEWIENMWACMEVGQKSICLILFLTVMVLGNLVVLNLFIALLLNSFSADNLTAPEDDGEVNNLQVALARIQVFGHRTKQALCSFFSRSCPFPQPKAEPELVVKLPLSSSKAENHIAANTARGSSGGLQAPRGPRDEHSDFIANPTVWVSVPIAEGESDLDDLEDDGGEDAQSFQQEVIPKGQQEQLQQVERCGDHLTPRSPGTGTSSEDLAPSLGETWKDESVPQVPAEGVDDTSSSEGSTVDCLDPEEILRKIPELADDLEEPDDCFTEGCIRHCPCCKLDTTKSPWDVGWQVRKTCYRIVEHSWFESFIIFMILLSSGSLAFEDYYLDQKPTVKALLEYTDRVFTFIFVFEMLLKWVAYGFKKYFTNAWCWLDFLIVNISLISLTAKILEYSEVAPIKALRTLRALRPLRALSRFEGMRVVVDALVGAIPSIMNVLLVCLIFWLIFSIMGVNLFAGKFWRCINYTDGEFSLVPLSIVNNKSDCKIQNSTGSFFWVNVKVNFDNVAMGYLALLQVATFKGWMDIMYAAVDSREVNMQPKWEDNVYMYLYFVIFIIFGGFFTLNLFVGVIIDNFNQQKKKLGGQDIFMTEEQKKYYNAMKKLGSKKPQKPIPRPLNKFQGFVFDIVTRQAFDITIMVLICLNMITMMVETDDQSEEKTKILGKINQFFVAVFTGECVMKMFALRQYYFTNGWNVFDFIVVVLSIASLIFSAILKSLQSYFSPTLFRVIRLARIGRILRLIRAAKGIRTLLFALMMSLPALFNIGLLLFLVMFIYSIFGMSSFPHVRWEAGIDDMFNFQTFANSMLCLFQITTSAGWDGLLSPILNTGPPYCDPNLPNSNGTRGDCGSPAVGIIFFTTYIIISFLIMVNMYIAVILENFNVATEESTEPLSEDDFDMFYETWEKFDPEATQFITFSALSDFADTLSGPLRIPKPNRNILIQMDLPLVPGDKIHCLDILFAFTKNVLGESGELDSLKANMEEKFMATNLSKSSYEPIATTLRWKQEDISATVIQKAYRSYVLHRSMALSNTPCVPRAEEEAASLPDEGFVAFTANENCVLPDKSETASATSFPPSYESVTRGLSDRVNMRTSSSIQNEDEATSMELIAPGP
SMILES,IC50 [1] [µM],IC50 [2] [µM],IC50 [3] [µM],IC50 [4] [µM]
"CCOc1ccc(-c2cncc(C(=O)N/N=C/c3cc(OC)cc(OCCN(C)C)c3)n2)cc1 [Compound 4, (E)-N′-(3-(2-(dimethylamino)ethoxy)-5-methoxybenzylidene)-6-(4-ethoxyphenyl)pyrazine-2-carbohydrazide]",6.02,6.66,,
"CCOc1ccc(-c2cncc(C(=O)N/N=C/c3cc(OC)cc4ncoc34)n2)cc1 [Compound 5, (E)-6-(4-ethoxyphenyl)-N′-((5-methoxybenzo[d]oxazol-7-yl)methylene)pyrazine-2-carbohydrazide]",5.63,> 10,,
"CCOc1ccc(-c2cncc(C(=O)N/N=C/c3cncc(OC)c3)n2)cc1 [Compound 8, (E)-6-(4-ethoxyphenyl)-N′-((5-methoxypyridin-3-yl)methylene)pyrazine-2-carbohydrazide]",> 10,> 10,,
"CCOc1ccc(-c2cncc(C(=O)N/N=C/c3cc(OC)ccn3)n2)cc1 [Compound 9, (E)-6-(4-ethoxyphenyl)-N′-((4-methoxypyridin-2-yl)methylene)pyrazine-2-carbohydrazide]",9.77,> 10,,
"CCOc1ccc(-c2cncc(C(=O)N/N=C/c3cccc(OC)n3)n2)cc1 [Compound 11, (E)-6-(4-ethoxyphenyl)-N′-((6-methoxypyridin-2-yl)methylene)pyrazine-2-carbohydrazide]",3.23,4.52,,
"CCOc1ccc(-c2cncc(C(=O)N/N=C/c3ccc(OC)cc3)n2)cc1 [Compound 23, (E)-6-(4-ethoxyphenyl)-N′-(4-methoxybenzylidene)pyrazine-2-carbohydrazide]",1.9,0.697,,
"CCOc1ccc(-c2cncc(C(=O)N/N=C/c3ccncc3)n2)cc1 [Compound 24, (E)-6-(4-ethoxyphenyl)-N′-(pyridin-4-ylmethylene)pyrazine-2-carbohydrazide]",8.09,> 10,,
"CCOc1ccc(-c2cncc(C(=O)N/N=C/c3ccccn3)n2)cc1 [Compound 25, (E)-6-(4-ethoxyphenyl)-N′-(pyridin-2-ylmethylene)pyrazine-2-carbohydrazide]",> 10,> 10,,
"CCOc1ccc(-c2cncc(C(=O)N/N=C/c3ccc(OC)c(OC)c3)n2)cc1 [Compound 28, (E)-N′-(3,4-dimethoxybenzylidene)-6-(4-ethoxyphenyl)pyrazine-2-carbohydrazide]",2.37,1.41,,
"CCOc1ccc(-c2cncc(C(=O)N/N=C(\C)c3cc(OC)cc(OC)c3)n2)cc1 [Compound 166, (E)-N′-(1-(3,5-dimethoxyphenyl)ethylidene)-6-(4-ethoxyphenyl)pyrazine-2-carbohydrazide]",9.18,6.36,,
"CCOc1ccc(-c2nc(C(=O)N/N=C/c3cc(OC)cc(OC)c3)cnc2C(F)(F)F)cc1 [Compound 210, (E)-N′-(3,5-dimethoxybenzylidene)-6-(4-ethoxyphenyl)-5-(trifluoromethyl)pyrazine-2-carbohydrazide]",,,0.68,> 10
"CCOc1ccc(-c2nc(C(=O)N/N=C/c3cc(OC)cc(OC)c3)cnc2OCC)cc1 [Compound 212, (E)-N′-(3,5-dimethoxybenzylidene)-5-ethoxy-6-(4-ethoxyphenyl)pyrazine-2-carbohydrazide]",,,> 1,> 10
"CCOc1cc(C)c(-c2cncc(C(=O)N/N=C/c3cccc(OC)c3)n2)c(C)c1 [Compound 213, (E)-6-(4-ethoxy-2,6-diemthylphenyl)-N′-(3-methoxybenzylidene)pyrazine-2-carbohydrazide]",,,> 1,> 10
CCOc1ccc(-c2cncc(C(=O)N/N=C/c3cc(CCO)cc(OC)c3)n2)cc1 [Compound 214],,,> 1,> 10
